According to patent US9421237B2, “Tripeptide boronic acid or boronic ester, preparative method and use thereof” (PEKING UNIVERSITY, priority 2009, dated 2016):

Legend:
[1] = tested on: Bel-7402 human hepatocarcinoma cell; assay: Preliminary anti-tumor screening in vitro, SRB method; assay type: cell-based; parameters: key to Test results: +++: inhibition rates at three doses are greater than 50%; ++: inhibition rates at two doses are greater than 50%; +: inhibition rate at one dose is greater than 50%; settings: Bel-7402, SRB; for Test results: number of doses with inhibition > 50%; for inhibition at 0.05 µM / inhibition at 0.5 µM / inhibition at 5 µM: Homo sapiens, read-out: Inhibition rate %
Outline: (§1)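 In vitro cytotoxicity by routine methods: MTT read-out for HL-60 cells, SRB read-out for BGC-823, Bel-7402 and KB cells.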

[2] = tested on: KB human nasopharyngeal carcinoma cell; assay: as above; assay type: cell-based; parameters: key to Test results: +++: inhibition rates at three doses are greater than 50%; ++: inhibition rates at two doses are greater than 50%; +: inhibition rate at one dose is greater than 50%; settings: for inhibition at 0.05 µM / inhibition at 0.5 µM / inhibition at 5 µM: Homo sapiens, read-out: Inhibition rate %; for Test results: number of doses with inhibition > 50%
Outline: as §1

[3] = tested on: HL-60, BXPC-3, U266 and BGC-823 cells; assay: In vitro anti-tumor activity (IC50), summary over the four tumor cell lines; assay type: cell-based
From the text: According to the results of aforementioned preliminary anti-tumor activities screening tests, those compounds which have better anti-tumor activities were selected to measure their IC50 values on four types of tumor cell lines: HL-60 (promyelocytic leukemia cell strain), BXPC-3 (human pancreatic cancer cell strain), U266 (multiple myeloma cell strain) and BGC-823 (human gastric carcinoma cell strain). HL-60, BXPC-3 and U266 were obtained from the American Type Culture Collection (Manassas, Va.), and BGC-823 (human gastric carcinoma cell strain) was obtained from China Pharmaceutical University.
Test methods: HL-60 cells were cultured in IMDM medium containing 20% fetal bovine serum at 37° C. in 5% CO2; BGC-823 cells and BXPC-3 cells were cultured in RPMI1640 medium containing 10% fetal bovine serum at 37° C. in 5% CO2; U266 cells were cultured in RPMI1640 medium containing 15% fetal bovine serum at 37° C. in 5% CO2.
The cell growth was measured by the standard MTT method. […] The precipitates were dissolved in 100 μL of DMSO, and absorbance was read with an Infinite M200 (Tecan, Austria) microplate reader at 540 nm.
The result was expressed as IC50 value, which is the average value of three independent determinations.

Structure (SMILES) | Test results [1] | inhibition at 0.05 µM [1] [%] | inhibition at 0.5 µM [1] [%] | inhibition at 5 µM [1] [%] | inhibition at 0.05 µM [2] [%] | inhibition at 0.5 µM [2] [%] | inhibition at 5 µM [2] [%] | Test results [2] | melting point [°C] | Inhibition of growth of three types of cells, compared with PS341 [3]
CC(C)C[C@H](NC(=O)[C@H](Cc1ccc2ccccc2c1)NC(=O)[C@H](Cc1ccccc1)NC(=O)c1cnccn1)B(O)O [Compound 6g, N-pyrazineformyl-L-phenylalanyl-L-naphthylalanyl-L-leucine Boronic Acid] | ++ | 37.9 | 72.2 | 93.4 | 59.4 | 96 | 96.7 | +++ |  | 
CC(C)C[C@H](NC(=O)[C@H](Cc1ccc2ccccc2c1)NC(=O)[C@H](CC(C)C)NC(=O)c1cnccn1)B(O)O [Compound 6f, N-pyrazineformyl-L-leucyl-L-naphthylalanyl-L-leucine Boronic Acid] | ++ | 39.4 | 90.6 | 93.7 | 32.1 | 95.7 | 97.8 | ++ | 157 to 159 | better than those of PS341
